# Test system: Mycobacterium tuberculosis
# Assay: Antimycobacterial activity against Mycobacterium tuberculosis H37Rv by agar diffusion method
# Assay type: functional
row,Compound,MIC [µg/mL]
1,COc1ccc2c(CS(=O)(=O)c3nc4ccccc4o3)cc(=O)oc2c1OC,0.78
2,NC(=O)c1cnccn1 [PYRAZINAMIDE],6.25
3,COc1ccc2c(CS(=O)(=O)C3CCCCC3)cc(=O)oc2c1,12.5
4,COc1ccc2c(CS(=O)(=O)C3CCCCC3)cc(=O)oc2c1OC,12.5
5,O=c1cc(CS(=O)(=O)c2nc3ccccc3[nH]2)c2ccccc2o1,1.61
6,O=c1cc(CS(=O)(=O)c2nc3ccccc3o2)c2ccccc2o1,7.5
7,COc1ccc2c(CS(=O)(=O)c3ccc(Cl)cc3)cc(=O)oc2c1OC,1.56
8,COc1ccc2c(CS(=O)(=O)c3ccccc3)cc(=O)oc2c1OC,6.25
9,Cc1ccc(S(=O)(=O)Cc2cc(=O)oc3ccccc23)cc1,12.5
10,COc1ccc2c(CS(=O)(=O)c3ccc(C)cc3)cc(=O)oc2c1,12.5
11,COc1ccc2c(CS(=O)(=O)c3nc4ccccc4[nH]3)cc(=O)oc2c1,6.25
12,CC[C@@H](CO)NCCN[C@@H](CC)CO [ETHAMBUTOL],1.56
13,COc1ccc2c(CS(=O)(=O)c3nc4ccccc4[nH]3)cc(=O)oc2c1OC,6.25
14,COc1ccc2c(CS(=O)(=O)c3ccccc3)cc(=O)oc2c1,12.5
15,O=c1cc(CS(=O)(=O)C2CCCCC2)c2ccccc2o1,6.25
16,COc1ccc2c(CS(=O)(=O)c3nc4ccccc4o3)cc(=O)oc2c1,6.25
17,O=c1cc(CS(=O)(=O)c2ccccc2)c2ccccc2o1,6.25
18,O=c1cc(CS(=O)(=O)c2ccc(Cl)cc2)c2ccccc2o1,12.5
19,COc1ccc2c(CS(=O)(=O)c3ccc(Cl)cc3)cc(=O)oc2c1,6.25
20,COc1ccc2c(CS(=O)(=O)c3ccc(C)cc3)cc(=O)oc2c1OC,3.13

# From ChEMBL document CHEMBL2046407, “Synthesis and in vitro antitubercular activity of 4-aryl/alkylsulfonylmethylcoumarins as inhibitors of Mycobacterium tuberculosis” (2012)
